One assay concerns the target T1, human topoisomerase I (Homo sapiens, UniProt P11387).
T1 sequence (P11387 1-765): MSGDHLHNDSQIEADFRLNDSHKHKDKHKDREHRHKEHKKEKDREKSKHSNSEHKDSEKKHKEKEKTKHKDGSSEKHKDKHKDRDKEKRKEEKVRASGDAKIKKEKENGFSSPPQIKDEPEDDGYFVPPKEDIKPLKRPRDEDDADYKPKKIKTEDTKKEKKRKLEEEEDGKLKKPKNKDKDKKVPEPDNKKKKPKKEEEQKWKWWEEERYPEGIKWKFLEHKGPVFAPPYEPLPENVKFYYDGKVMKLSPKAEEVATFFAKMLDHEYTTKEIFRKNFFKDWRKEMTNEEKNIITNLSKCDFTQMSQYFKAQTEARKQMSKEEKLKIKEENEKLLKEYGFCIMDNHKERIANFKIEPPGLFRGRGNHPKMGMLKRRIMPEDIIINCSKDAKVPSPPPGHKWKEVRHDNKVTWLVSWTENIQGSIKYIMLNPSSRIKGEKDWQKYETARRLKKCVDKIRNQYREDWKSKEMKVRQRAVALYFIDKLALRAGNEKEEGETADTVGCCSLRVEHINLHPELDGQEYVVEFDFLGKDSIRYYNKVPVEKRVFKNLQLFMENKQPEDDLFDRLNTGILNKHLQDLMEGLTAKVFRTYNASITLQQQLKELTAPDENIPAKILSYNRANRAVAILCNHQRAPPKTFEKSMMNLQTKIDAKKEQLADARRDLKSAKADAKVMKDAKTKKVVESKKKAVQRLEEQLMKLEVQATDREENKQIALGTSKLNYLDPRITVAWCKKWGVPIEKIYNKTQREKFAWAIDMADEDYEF
As to conditions: relative topoisomerase I inhibition levels, previously determined, six levels (0 - 5, +++++ = 5); cited from earlier work.

The test system of a further assay is NCI-60 cancer cell lines. Nature of the assay: NCI-60 cancer cell line drug screen (GI50, MGM). It counts as cell-based, human. The note with it: Homo sapiens; for mean GI50 across NCI-60 panel (MGM): average of GI50 values across the entire panel of NCI-60 cancer cell lines. Here is the method:
Cancer cells were incubated with the test compounds at five concentrations ranging from 100 μM to 10 nM for 48 h. […] The approximate average of GI50 values across the entire panel of NCI-60 cancer cell lines for each compound was recorded as the MGM value.

The subject of assay [1] is MYC protein expression in MCF-7 breast cancer cells. The assay can be described thus: Western blotting of MYC protein level in MCF-7 cells. The note with it: Homo sapiens, MCF7; western blotting, MCF-7 cells, 0.5, 1, 2, and 4 μM, 24 hours; read-out: MYC Inhibition. It counts as cell-based, human. Here is the method:
MCF-7 cells were incubated with each compound at four concentrations (0.5, 1, 2, and 4 μM) for 24 hours, and the MYC protein levels were measured (FIG. 3A and FIGS. 12 A to 12 F).
Cells were incubated at 37° C. with 5% CO2.
The gels were cut into strips that contained the proteins of interest and transferred to nitrocellulose membrane (I323002, Invitrogen) using an iBlot 2 Dry Transfer Device (Invitrogen). Immunoblotting was carried out according to standard procedures using the ECL detection method. The membrane was hybridized with the following antibodies: monoclonal anti-MYC (1:1000 dilution; rabbit, Cell Signaling Technology), monoclonal anti-GAPDH (1:2000 dilution; rabbit, Cell Signaling Technology).

Where [2] appears, read: A549, Non-Small Cell Lung Cancer, A549/ATCC, read-out: Antiproliferative Activities [GI50 (μM)].
Where [3] appears, read: CCRF-CEM, Leukemia, CCRF-CEM, read-out: Antiproliferative Activities [GI50 (μM)].
[4] abbreviates: COLO 205, Colon Cancer, COLO 205, read-out: Antiproliferative Activities [GI50 (μM)].
Setting [5] is: HCC 2998, Colon Cancer, HCC-2998, read-out: Antiproliferative Activities [GI50 (μM)].
The mark [6] stands for this setting: HCT-116, Colon Cancer, HCT-116, read-out: Antiproliferative Activities [GI50 (μM)].
Where [7] appears, read: HL-60, Leukemia, HL-60(TB), read-out: Antiproliferative Activities [GI50 (μM)].
Where [8] appears, read: HOP-62, Non-Small Cell Lung Cancer, HOP-62, read-out: Antiproliferative Activities [GI50 (μM)].
Setting [9] is: HOP-92, Non-Small Cell Lung Cancer, HOP-92, read-out: Antiproliferative Activities [GI50 (μM)].
[10] abbreviates: K562, Leukemia, K-562, read-out: Antiproliferative Activities [GI50 (μM)].
The mark [11] stands for this setting: Leukemia, SR, read-out: Antiproliferative Activities [GI50 (μM)].
The mark [12] stands for this setting: MOLT-4, Leukemia, MOLT-4, read-out: Antiproliferative Activities [GI50 (μM)].
The mark [13] stands for this setting: NCI-H23, Non-Small Cell Lung Cancer, NCI-H23, read-out: Antiproliferative Activities [GI50 (μM)].
The mark [14] stands for this setting: NCI-H226, Non-Small Cell Lung Cancer, NCI-H226, read-out: Antiproliferative Activities [GI50 (μM)].
Setting [15] is: NCI-H460, Non-Small Cell Lung Cancer, NCI-H460, read-out: Antiproliferative Activities [GI50 (μM)].
[16] abbreviates: NCI-H522, Non-Small Cell Lung Cancer, NCI-H522, read-out: Antiproliferative Activities [GI50 (μM)].
Setting [17] is: RPMI-8226, Leukemia, RPMI-8226, read-out: Antiproliferative Activities [GI50 (μM)].

Each structure is given as a SMILES string. pIC50: −log10 of the molar value. Where two headings read alike, the source gives them in different places. Bounds are passed on as bounds.

As usually defined, the GI50 is the concentration giving 50% growth inhibition.

As for `COc1cnc2c(c1)C(=O)c1c-2n(CCCN2CCNCC2)c(=O)c2cc(Cl)ccc12` [Compound 1], at human topoisomerase I, the “Top1 Inhibiton” value was “+ (weak inhibition, +, MYC expression inhibited at 4.0 μM)”.

As to `COc1cnc2c(c1)C(=O)c1c-2n(CCCN2CCN(C)CC2)c(=O)c2cc(Cl)ccc12` [Compound 4], on human topoisomerase I, the “Top1 Inhibiton” value is “+ (weak inhibition, +, MYC expression inhibited at 4.0 μM)”.

In the case of `CCNCCCn1c2c(c3ccc(F)cc3c1=O)C(=O)c1cc(OC)cnc1-2` [Compound 7], on human topoisomerase I, the “Top1 Inhibiton” value was “++ (medium inhibition, ++, MYC expression inhibited at 2.0 μM, or no clear dose-dependent MYC inhibition)”.

For `COc1cnc2c(c1)C(=O)c1c-2n(CCCN2CCNCC2)c(=O)c2cc(F)ccc12` [Compound 8], the “Top1 Inhibiton” value at human topoisomerase I is recorded as “+ (weak inhibition, +, MYC expression inhibited at 4.0 μM)”.

In the case of `COc1cc2c3c(n(CCCNCCO)c(=O)c2cc1OC)-c1cc2c(cc1C3=O)OCO2` [Compound 44], the GI50 in the assay on NCI-60 cancer cell lines (A549, read-out: Antiproliferative Activities [GI50 (μM)]) was 0.03 µM; in the assay on NCI-60 cancer cell lines (CCRF-CEM, read-out: Antiproliferative Activities [GI50 (μM)]) it was < 0.01 µM; in the assay on NCI-60 cancer cell lines (COLO 205, read-out: Antiproliferative Activities [GI50 (μM)]) it was 0.38 µM; with NCI-60 cancer cell lines (EKVX, read-out: Antiproliferative Activities [GI50 (μM)]), 0.26 µM; in the assay on NCI-60 cancer cell lines (HCT-116, read-out: Antiproliferative Activities [GI50 (μM)]) it was 0.07 µM; in the assay on NCI-60 cancer cell lines (HL-60, read-out: Antiproliferative Activities [GI50 (μM)]), < 0.01 µM. In addition, the GI50 is 0.01 µM in the assay with NCI-60 cancer cell lines (HOP-62, read-out: Antiproliferative Activities [GI50 (μM)]); 0.83 µM with NCI-60 cancer cell lines (HOP-92, read-out: Antiproliferative Activities [GI50 (μM)]); 0.02 µM in the assay on NCI-60 cancer cell lines (K562, read-out: Antiproliferative Activities [GI50 (μM)]); < 0.01 µM in the assay on NCI-60 cancer cell lines (MOLT-4, read-out: Antiproliferative Activities [GI50 (μM)]); < 0.01 µM in the assay with NCI-60 cancer cell lines (NCI-H23, read-out: Antiproliferative Activities [GI50 (μM)]); 0.21 µM in the assay on NCI-60 cancer cell lines (NCI-H226, read-out: Antiproliferative Activities [GI50 (μM)]). The GI50 with NCI-60 cancer cell lines (NCI-H322M, read-out: Antiproliferative Activities [GI50 (μM)]) is 0.05 µM; in the assay with NCI-60 cancer cell lines (NCI-H460, read-out: Antiproliferative Activities [GI50 (μM)]), < 0.01 µM; in the assay on NCI-60 cancer cell lines (NCI-H522, read-out: Antiproliferative Activities [GI50 (μM)]), < 0.01 µM; in the assay on NCI-60 cancer cell lines (RPMI-8226, read-out: Antiproliferative Activities [GI50 (μM)]), 0.01 µM; in the assay on NCI-60 cancer cell lines (read-out: Antiproliferative Activities [GI50 (μM)]) it was < 0.01 µM. Further, the pIC50 with NCI-60 cancer cell lines (read-out: MGM) is 7.22. Moreover, in assay [1], the minimal effective concentration was in the range of 0.5 to 1 µM.

Take `COc1cc2c3c(n(CCCN)c(=O)c2cc1OC)-c1cc2c(cc1C3=O)OCO2` [Compound 45]: the GI50 is 0.11 µM in the assay with NCI-60 cancer cell lines (setting [2]); < 0.01 µM with NCI-60 cancer cell lines (setting [3]); 0.3 µM with NCI-60 cancer cell lines (setting [4]); 0.1 µM in the assay with NCI-60 cancer cell lines (setting [5]); 0.12 µM in the assay with NCI-60 cancer cell lines (setting [6]); 0.22 µM in the assay with NCI-60 cancer cell lines (setting [7]). For the same compound, the GI50 in the assay on NCI-60 cancer cell lines (setting [8]) is 0.06 µM; with NCI-60 cancer cell lines (setting [9]) it was 1.65 µM; with NCI-60 cancer cell lines (setting [10]), 0.09 µM; with NCI-60 cancer cell lines (setting [11]), < 0.01 µM; in the assay on NCI-60 cancer cell lines (setting [12]), < 0.01 µM; in the assay on NCI-60 cancer cell lines (setting [13]) it was 0.13 µM. Further, the GI50 was 1.39 µM in the assay with NCI-60 cancer cell lines (setting [14]), 0.02 µM with NCI-60 cancer cell lines (setting [15]), 0.07 µM in the assay with NCI-60 cancer cell lines (setting [16]) and < 0.01 µM in the assay on NCI-60 cancer cell lines (setting [17]). The mean GI50 across NCI-60 panel (MGM) in the assay on NCI-60 cancer cell lines amounted to 0.18 µM. For the same compound, the “Top1 Inhibiton” value on human topoisomerase I was “+++ (strong inhibition, +++, MYC expression inhibited at 0.5 to 1.0 μM)”. Further, the minimal effective concentration in assay [1] came to 2 µM.

As to `COc1cc2c3c(n(CCCNC4=NCCS4)c(=O)c2cc1OC)-c1cc2c(cc1C3=O)OCO2` [Compound 50], the GI50 was < 0.01 µM with NCI-60 cancer cell lines (setting [2]); < 0.01 µM in the assay on NCI-60 cancer cell lines (setting [3]); < 0.01 µM with NCI-60 cancer cell lines (setting [4]); 2.57 µM in the assay on NCI-60 cancer cell lines (EKVX, Non-Small Cell Lung Cancer, EKVX, read-out: Antiproliferative Activities [GI50 (μM)]); < 0.01 µM in the assay with NCI-60 cancer cell lines (setting [5]); < 0.01 µM in the assay on NCI-60 cancer cell lines (setting [6]). Besides, the GI50 is 0.29 µM with NCI-60 cancer cell lines (setting [7]); < 0.01 µM with NCI-60 cancer cell lines (setting [8]); < 0.01 µM in the assay on NCI-60 cancer cell lines (setting [9]); < 0.01 µM in the assay with NCI-60 cancer cell lines (setting [10]); < 0.01 µM in the assay with NCI-60 cancer cell lines (setting [11]); < 0.01 µM in the assay with NCI-60 cancer cell lines (setting [12]). In addition, the GI50 in the assay with NCI-60 cancer cell lines (setting [13]) is 0.02 µM; in the assay on NCI-60 cancer cell lines (setting [14]), 0.05 µM; in the assay with NCI-60 cancer cell lines (NCI-H322M, Non-Small Cell Lung Cancer, NCI-H322M, read-out: Antiproliferative Activities [GI50 (μM)]) it was 3.18 µM; with NCI-60 cancer cell lines (setting [15]), < 0.01 µM; with NCI-60 cancer cell lines (setting [16]) it was 0.02 µM; with NCI-60 cancer cell lines (setting [17]), 0.02 µM. In the assay on NCI-60 cancer cell lines, this compound yielded a mean GI50 across NCI-60 panel (MGM) of 0.04 µM. Also, in assay [1], the minimal effective concentration was determined as 2 µM.

The values above are taken from patent US20210382058A1, “PATIENT SELECTION FOR TREATMENT OF MYC POSITIVE CANCERS WITH INDENOISOQUINOLINES” (Purdue Research Foundation, priority 2020, published 2021).
